Data: the supplement of paper PMC10307832

Columns and labels:
Assay in all cases: relative viability (nuclei count vs DMSO), 5 days (fraction); higher = more cells survive
Imatinib + Bortezomib = compound: Cc1ccc(NC(=O)c2ccc(CN3CCN(C)CC3)cc2)cc1Nc1nccc(-c2cccnc2)n1 [Imatinib] + CC(C)C[C@H](NC(=O)[C@H](Cc1ccccc1)NC(=O)c1cnccn1)B(O)O [Bortezomib] (partner 0.002 µM)
Method in brief: (§1)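 Dosing by pin tool came one day after lung cancer cell lines were seeded in 1536-well plates, using either one drug or a fixed anchor-drug dose plus five library-drug doses (not always all listed) in √10 steps. After 5 days, nuclei were counted on 4× images. Relative viability is treated-well nuclei count divided by vehicle-well nuclei count, and values are medians of duplicate plates.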

Imatinib + Pictilisib = compound: Cc1ccc(NC(=O)c2ccc(CN3CCN(C)CC3)cc2)cc1Nc1nccc(-c2cccnc2)n1 [Imatinib] + CS(=O)(=O)N1CCN(Cc2cc3nc(-c4cccc5[nH]ncc45)nc(N4CCOCC4)c3s2)CC1 [Pictilisib] (partner 1 µM)
Method in brief: as §1

Imatinib + Tozasertib = compound: Cc1ccc(NC(=O)c2ccc(CN3CCN(C)CC3)cc2)cc1Nc1nccc(-c2cccnc2)n1 [Imatinib] + Cc1cc(Nc2cc(N3CCN(C)CC3)nc(Sc3ccc(NC(=O)C4CC4)cc3)n2)n[nH]1 [Tozasertib] (partner 0.1 µM)
Method in brief: as §1

Imatinib + Pemetrexed = compound: Cc1ccc(NC(=O)c2ccc(CN3CCN(C)CC3)cc2)cc1Nc1nccc(-c2cccnc2)n1 [Imatinib] + Nc1nc2[nH]cc(CCc3ccc(C(=O)N[C@@H](CCC(=O)O)C(=O)O)cc3)c2c(=O)[nH]1 [Pemetrexed] (partner 0.2 µM)
Method in brief: as §1

| Cell Line | relative viability (Imatinib + Bortezomib; first compound 0.02 µM) | relative viability (Imatinib + Bortezomib; first compound 0.06325 µM) | relative viability (Imatinib + Bortezomib; first compound 0.2 µM) | relative viability (Imatinib + Bortezomib; first compound 0.6325 µM) | relative viability (Imatinib + Pictilisib; first compound 0.02 µM) | relative viability (Imatinib + Pictilisib; first compound 0.06325 µM) | relative viability (Imatinib + Pictilisib; first compound 0.2 µM) | relative viability (Imatinib + Pictilisib; first compound 0.6325 µM) | relative viability (Imatinib + Pictilisib; first compound 2 µM) | relative viability (Imatinib + Tozasertib; first compound 0.02 µM) | relative viability (Imatinib + Tozasertib; first compound 0.06325 µM) | relative viability (Imatinib + Tozasertib; first compound 0.2 µM) | relative viability (Imatinib + Tozasertib; first compound 0.6325 µM) | relative viability (Imatinib + Tozasertib; first compound 2 µM) | relative viability (Imatinib + Pemetrexed; first compound 0.02 µM) | relative viability (Imatinib + Pemetrexed; first compound 0.06325 µM) | relative viability (Imatinib + Pemetrexed; first compound 2 µM) | relative viability (Imatinib + Bortezomib; first compound 2 µM) | relative viability (Imatinib + Pemetrexed; first compound 0.2 µM) | relative viability (Imatinib + Pemetrexed; first compound 0.6325 µM) |
| --- | --- | --- | --- | --- | --- | --- | --- | --- | --- | --- | --- | --- | --- | --- | --- | --- | --- | --- | --- | --- |
| NCI-H23 | 1.29 | 0.95 | 1.13 | 1.03 | 0.582 | 0.547 | 0.541 | 0.446 | 0.494 | 0.441 | 0.37 | 0.322 | 0.285 | 0.269 | 0.692 | 0.69 | 0.571 | – | – | – |
| NCI-H322M | 1.16 | 1.34 | 1.26 | 1.1 | 0.516 | 0.454 | 0.561 | 0.485 | 0.565 | 0.483 | 0.507 | 0.491 | 0.432 | 0.471 | 0.677 | 0.613 | 0.63 | 1.1 | 0.63 | 0.563 |
| NCI-H441 | 1.12 | 0.616 | 0.543 | 0.439 | 0.501 | 0.437 | 0.578 | 0.502 | 0.435 | 0.58 | 0.644 | 0.667 | 0.612 | 0.412 | 0.278 | 0.262 | 0.24 | 0.435 | 0.27 | 0.265 |
| NCI-H460 | 1.5 | 1.33 | 1.7 | 0.92 | 0.465 | 0.277 | 0.335 | 0.506 | 0.3 | 0.445 | 0.576 | 0.417 | 0.0905 | 0.0547 | 0.0572 | 0.0576 | 0.0654 | – | 0.0551 | 0.0623 |
| NCI-H520 | 0.781 | 0.639 | 0.476 | 0.558 | 0.348 | 0.362 | 0.305 | 0.289 | 0.306 | 0.474 | 0.509 | 0.366 | 0.424 | – | 0.556 | 0.768 | 0.733 | 0.512 | 0.709 | 0.716 |
| NCI-H596 | 1.2 | 1.02 | – | 0.944 | 0.416 | 0.375 | 0.42 | 0.394 | 0.388 | 0.886 | 0.964 | 0.993 | 0.72 | 0.829 | 0.497 | 0.507 | 0.487 | – | 0.509 | 0.466 |
| NCI-H647 | 1.11 | 1.11 | 1.73 | 1.02 | 0.462 | 0.447 | 0.433 | 0.38 | 0.385 | 0.554 | 0.242 | 0.0832 | 0.28 | 0.321 | 0.18 | 0.183 | 0.158 | 0.872 | 0.192 | 0.202 |
| NCI-H650 | 0.893 | 0.823 | 0.805 | 1.03 | 1.09 | 1.01 | 0.855 | 0.885 | – | 0.832 | 0.682 | 0.851 | 0.697 | 0.764 | 0.986 | – | 0.875 | 0.616 | 0.834 | 0.951 |
| NCI-H661 | 0.81 | 0.613 | 0.821 | 0.607 | 0.333 | 0.431 | 0.456 | 0.374 | 0.413 | 0.383 | 0.393 | 0.365 | 0.344 | 0.347 | 0.915 | 1.09 | 0.936 | 0.852 | 0.93 | 0.931 |
| NCI-H838 | 1.04 | 0.823 | 0.947 | 1 | 0.447 | 0.55 | 0.519 | 0.465 | 0.499 | 0.241 | 0.318 | 0.28 | 0.307 | 0.275 | 0.249 | 0.26 | 0.247 | 0.886 | 0.251 | 0.253 |
| NCI-H1355 | 1.26 | – | 1.31 | 1.13 | 0.432 | – | 0.434 | 0.468 | 0.536 | 0.589 | – | 0.51 | 0.395 | 0.349 | 1.14 | – | 1.01 | 1.18 | 1.11 | 1.08 |
| NCI-H1437 | 0.697 | 0.528 | 0.541 | 0.432 | 0.391 | 0.454 | 0.422 | 0.463 | 0.424 | 0.449 | 0.453 | 0.411 | 0.408 | 0.373 | 0.318 | 0.354 | 0.279 | 0.547 | 0.374 | 0.33 |
| NCI-H1650 | 0.211 | 0.204 | 0.22 | 0.22 | 0.638 | 0.338 | 0.589 | 0.574 | 0.661 | 0.449 | 0.405 | 0.337 | 0.37 | 0.303 | 0.414 | 0.405 | 0.416 | 0.233 | 0.362 | 0.335 |
| NCI-H1651 | 1.03 | 0.83 | 0.964 | 0.955 | 0.759 | 0.62 | 0.698 | 0.634 | 0.569 | 0.796 | 0.659 | 0.649 | 0.535 | 0.436 | 0.617 | 0.339 | 0.555 | 0.893 | 0.586 | 0.58 |
| NCI-H1666 | 0.76 | 0.796 | 0.837 | 0.859 | 0.327 | 0.406 | 0.381 | 0.48 | 0.393 | 0.622 | 0.623 | 0.603 | 0.665 | 0.574 | 0.902 | 0.906 | 0.842 | 0.652 | 0.897 | 0.842 |
| NCI-H1734 | 1.3 | – | 1.02 | 0.938 | 0.515 | – | 0.559 | 0.428 | – | 0.243 | 0.268 | 0.278 | 0.259 | 0.264 | 0.402 | – | 0.388 | – | 0.425 | 0.377 |
| NCI-H1755 | 1.13 | 1.09 | 1.03 | – | 0.457 | 0.348 | 0.531 | 0.495 | 0.473 | 0.612 | 0.585 | 0.592 | 0.609 | 0.516 | 0.568 | 0.44 | 0.625 | 0.928 | 0.416 | 0.386 |
